Assay results: US20240366731A1, “ORAL ALGAL OIL BASED GASTRO-INTESTINAL TRACT PERMEABLE PEPTIDE COMPOSITION” (CELAGENEX RESEARCH (INDIA) PVT. LTD., priority 2021, published 2024)
“And” between values parts separate entries of the source, which are not always exact repeats. Equal entries are not always repeated.

Assay: Study of Composition-3 vs Januvia (Sitagliptin) vs Placebo in T2D adult patients with inadequate glycemic control, 04-week treatment
Format: in vivo, human
Procedure: A study of Composition-3 vs Januvia (Sitagliptin) vs Placebo in adult patients with inadequate glycemic control • 1. Composition-3—Oral insulin—8 mg • 2. Reference—Januvia (Sitagliptin)—100 mg • 3. Placebo
The pivotal study was involved 36 patients divided in to 3 groups of 12 each randomized to 1:1:1 into three cohorts dosed with 8 mg of Composition-3at night, Januvia 100 mg (Sitagliptin) at night and placebo at night.
Patient population-T2D adult patients above age of 21 years with inadequate glycemic control who were managing their condition with diet and metformin monotherapy.
• HbA1c ≥7.5% on metformin ≥500 mg daily • At time of randomization, patients were treated for their diabetes by diet, exercise, and metformin (≥500 mg/day; any type and regimen). […] A negative urine pregnancy test was obtained during Visit 2 and at Visit 4 (prior to randomization). • Males and females of childbearing potential used two methods of contraception (double barrier method), one of which must be an acceptable barrier method from the time of screening to the last study visit
• Patients who meet any of the following criteria was not eligible for this study. • Presence of any clinically significant endocrine disease according to the Investigator (euthyroid patients on replacement therapy was included if the dosage of thyroxine is stable for at least six weeks prior to Screening Visit). • Clinical diagnosis of Type 1 diabetes. • Presence or history of cancer within the past five years except for adequately treated localized basal cell skin cancer or in situ uterine cervical cancer. • Laboratory abnormalities at screening including: • 1. C-peptide <1.0 ng/mL. • 2. Positive pregnancy test in females of childbearing potential (at screening and start of run-in period). • 3. Abnormal serum thyrotropin (TSH) levels >1.5 times the upper limit of normal. • 4. Positive test for hepatitis B surface antigen and/or hepatitis C antibody. • 5. Positive test for HIV. • 6. Serum Cr >1.4 mg/dl in males, >1.3 mg/dl in females. • 7. Any relevant abnormality interfering with the efficacy or the safety assessments during study drug administration. • Use of the following medications: • 1. History of use of insulin for greater than one week in the last six months and any use of insulin in the last six weeks prior to randomization. • 2. Administration of anti-diabetic drugs other than metformin within four weeks prior to randomization visit. Administration of thyroid preparations or thyroxine within six weeks prior to screening visit. […] (Note: Alcohol abuse includes heavy alcohol intake as defined by >3 drinks per day or >14 drinks per week, or binge drinking). • Elevated liver enzymes (alanine transaminase (ALT), […], alkaline phosphatase) greater than two times the upper limit of normal at screening. • Very high triglyceride level (>500 mg/dL) at screening. • Any clinically significant electrocardiogram (ECG) abnormality at screening or cardiovascular disease. Clinically significant cardiovascular disease will include: • 1. History of stroke, transient ischemic attack, or myocardial infarction within six months prior to screening, • 2. History of or currently have New York Heart Associate Class II-IV heart failure prior to screening, or • 3. Uncontrolled hypertension defined as blood pressure ≥160 mmHg (systolic) or ≥100 mmHg (diastolic) at screening.
• The primary endpoint of the study was to compare the efficacy of Composition-3 to Sitagliptin & placebo in improving glycaemic control as assessed by A1c over a 04-week treatment period, with a secondary endpoint of comparing Composition-3 to Sitagliptin & placebo in change from baseline in FPG at week 04 • 1. Change from Baseline in Haemoglobin A1c (A1C) at Week 04 [Time Frame: Baseline and Week 04] A1C was measured as the percentage of glycosylated haemoglobin. Change in A1C following 04 weeks of therapy (i.e., A1C at Week 04 minus A1C at baseline) • 2. […]

SMILES: N[C@@H](CC(=O)N1CCn2c(nnc2C(F)(F)F)C1)Cc1cc(F)c(F)cc1F [Sitagliptin]
- Mean A1c (HbA1c) % week 04 (group mean n = 12, Week 04): 6.66%
- Mean FPG (mg/dl) week 04 (group mean n = 12, Week 04): 160.53 mg/dL
- % Improvement A1c (HbA1c) (group mean n = 12, Week 04 vs baseline): 14.7%
- Mean A1c (HbA1c) % baseline (group mean n = 12, baseline): 7.81%
- Mean FPG (mg/dl) baseline (group mean n = 12, baseline): 200.68 mg/dL
- FPG (mg/dl) Week 04 (individual patient, Week 04, before breakfast): 155.06 mg/dl and 159.18 mg/dl and 156.1 mg/dl and 150.54 mg/dl and 158.1 mg/dl and 166.66 mg/dl and 157.66 mg/dl and 164.78 mg/dl (2×) and 182.58 mg/dl and 152.06 mg/dl and 158.54 mg/dl
- A1c (HbA1c) % Week 04 (individual patient, Week 04, dosed orally at night): 6.6% (4×) and 6.8% (3×) and 6.5% (2×) and 6.4% (2×) and 7.3%
- A1c (HbA1c) % Baseline (individual patient, baseline, T2D patients on metformin): 7.9% (2×) and 8% and 7.6% (2×) and 7.7% (3×) and 7.8% (3×) and 8.2%
- FPG (mg/dl) Baseline (individual patient, baseline, before breakfast): 203.94 mg/dl (2×) and 207.5 mg/dl and 193.26 mg/dl (2×) and 196.82 mg/dl (3×) and 200.38 mg/dl (3×) and 214.62 mg/dl
